Measured values published in patent EP4781984A1 (Beyang Therapeutics Co., Ltd., priority 2023, dated 2025).
Converted amounts (≈) assume the structure as drawn. One block for each compound: values may come before it.

Legend:
[1] = biological target: T1, VEGFR1 (Homo sapiens, UniProt P17948); assay: Kinase inhibitory activity, Mobility Shift Assay (VEGFR1); format: biochemical
T1 construct: purchased Invitrogen PR6731B
Method: (§1) Assay for Inhibitory Activity of Compounds Against VEGFR and EGFR Kinases
(§2) This assay directly monitors the inhibitory activity of compounds on kinase phosphorylation by measuring non-phosphorylated and phosphorylated substrates in the kinase reaction using Mobility Shift Assays/IMAP™ analysis. Table 2. Reagents and Instruments
(§3) Kinase and DTT were added to 1X kinase buffer to form a 2.5X kinase solution; 10 µL of the 2.5X kinase solution was transferred to a 384-well reaction plate, and 1X kinase buffer was added to the negative control wells. The plate was incubated at room temperature for 10 minutes; FAM-labeled peptide, MgCl2, ATP, and other reagents were added to 1X kinase buffer to form a 2.5X substrate solution; 10 µL of the above 2.5X substrate solution was transferred to the 384-well reaction plate; the plate was incubated at 28°C for varying times, and then 25 µL of stop solution was added to the 384-well reaction plate to terminate the reaction. Conversion rate data were read on a CaliperEZ Reader II. […] IC50 values were fitted using XLFit excel add-in version 5.4.0.8. Y = Bottom + (Top−Bottom)/(1 + […]) [formula]
(§4) X is the log value of compound concentration, Y is the inhibition rate (% inhibition).

[2] = biological target: T2, VEGFR3 (Homo sapiens, UniProt P35916); assay: Kinase inhibitory activity, Mobility Shift Assay (VEGFR3); format: biochemical
T2 construct: purchased Invitrogen PV4129
T2 sequence (P35916 25-1363): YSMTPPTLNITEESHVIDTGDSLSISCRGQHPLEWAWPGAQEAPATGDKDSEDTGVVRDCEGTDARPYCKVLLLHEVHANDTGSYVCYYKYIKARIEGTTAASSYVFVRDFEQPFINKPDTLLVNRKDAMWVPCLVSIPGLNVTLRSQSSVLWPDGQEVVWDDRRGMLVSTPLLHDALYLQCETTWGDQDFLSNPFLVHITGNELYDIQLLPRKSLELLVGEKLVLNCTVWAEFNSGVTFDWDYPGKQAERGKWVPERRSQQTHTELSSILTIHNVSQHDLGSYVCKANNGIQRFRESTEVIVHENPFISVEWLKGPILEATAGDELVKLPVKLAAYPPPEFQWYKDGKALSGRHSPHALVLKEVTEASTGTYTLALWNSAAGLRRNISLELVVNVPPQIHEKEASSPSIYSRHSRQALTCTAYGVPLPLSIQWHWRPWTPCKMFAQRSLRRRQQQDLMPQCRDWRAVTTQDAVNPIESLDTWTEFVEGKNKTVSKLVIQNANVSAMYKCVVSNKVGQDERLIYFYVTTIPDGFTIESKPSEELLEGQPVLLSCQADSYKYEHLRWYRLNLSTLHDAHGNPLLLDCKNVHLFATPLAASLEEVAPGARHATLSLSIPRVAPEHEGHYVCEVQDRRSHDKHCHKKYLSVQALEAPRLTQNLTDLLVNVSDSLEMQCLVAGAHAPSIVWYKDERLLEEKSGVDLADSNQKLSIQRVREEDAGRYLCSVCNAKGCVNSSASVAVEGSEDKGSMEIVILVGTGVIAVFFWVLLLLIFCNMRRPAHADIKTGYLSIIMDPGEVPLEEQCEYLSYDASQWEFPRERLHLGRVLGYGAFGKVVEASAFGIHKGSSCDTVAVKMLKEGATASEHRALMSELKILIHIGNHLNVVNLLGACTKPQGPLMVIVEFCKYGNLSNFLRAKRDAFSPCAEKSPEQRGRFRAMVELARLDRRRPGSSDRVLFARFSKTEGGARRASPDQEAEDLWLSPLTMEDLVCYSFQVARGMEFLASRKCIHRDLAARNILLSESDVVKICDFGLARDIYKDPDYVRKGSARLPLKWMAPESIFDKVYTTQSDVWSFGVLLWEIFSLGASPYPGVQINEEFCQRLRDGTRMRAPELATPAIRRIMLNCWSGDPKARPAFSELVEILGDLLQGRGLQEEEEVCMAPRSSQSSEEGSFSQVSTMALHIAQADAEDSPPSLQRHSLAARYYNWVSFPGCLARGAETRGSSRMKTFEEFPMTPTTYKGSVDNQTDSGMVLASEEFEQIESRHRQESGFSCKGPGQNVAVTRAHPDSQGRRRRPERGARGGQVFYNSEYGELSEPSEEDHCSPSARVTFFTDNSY
Method: as §1, §2, §3, §4

[3] = Thermodynamic solubility test; format: physicochemical; conditions: buffer solution, aqueous buffer, thermodynamic from solid; thermodynamic solubility, room temperature, 8 hours shaking; buffers pH 2.0, 6.5, 7.4 used, pH of the tabulated value not given
Outline: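 Samples sonicated 10 min, shaken 8 h at room temperature, re-sonicated and centrifuged at 13000 rpm for 15 min. Supernatant recentrifuged and analysed by LC-MS, with concentrations quantified against a 3–5 point calibration curve.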

[4] = system: melanin; assay: Compound binding to melanin; format: in vitro ADME; conditions: cuttlefish (Sepia officinalis), melanin suspension (1 mg/mL), percentage of free drug (not bound to melanin), 2 µM compound, melanin 1 mg/mL in PBS pH 7.4, 37°C
Outline: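 Compound at 2 µM final incubated with 1 mg/mL Sepia melanin in PBS pH 7.4, 37°C, 2 hours with shaking; blank in PBS with 0.1% BSA. Supernatant concentration by LC-MS/MS. Fb = 100 − (Ctest/Ccontrol) × 100%.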

[5] = biological target: T3, VEGFR2 (Homo sapiens, UniProt P35968); assay: Kinase inhibitory activity, Mobility Shift Assay (VEGFR2); format: biochemical
T3 construct: purchased Carna 08-191
T3 sequence (P35968 20-1356): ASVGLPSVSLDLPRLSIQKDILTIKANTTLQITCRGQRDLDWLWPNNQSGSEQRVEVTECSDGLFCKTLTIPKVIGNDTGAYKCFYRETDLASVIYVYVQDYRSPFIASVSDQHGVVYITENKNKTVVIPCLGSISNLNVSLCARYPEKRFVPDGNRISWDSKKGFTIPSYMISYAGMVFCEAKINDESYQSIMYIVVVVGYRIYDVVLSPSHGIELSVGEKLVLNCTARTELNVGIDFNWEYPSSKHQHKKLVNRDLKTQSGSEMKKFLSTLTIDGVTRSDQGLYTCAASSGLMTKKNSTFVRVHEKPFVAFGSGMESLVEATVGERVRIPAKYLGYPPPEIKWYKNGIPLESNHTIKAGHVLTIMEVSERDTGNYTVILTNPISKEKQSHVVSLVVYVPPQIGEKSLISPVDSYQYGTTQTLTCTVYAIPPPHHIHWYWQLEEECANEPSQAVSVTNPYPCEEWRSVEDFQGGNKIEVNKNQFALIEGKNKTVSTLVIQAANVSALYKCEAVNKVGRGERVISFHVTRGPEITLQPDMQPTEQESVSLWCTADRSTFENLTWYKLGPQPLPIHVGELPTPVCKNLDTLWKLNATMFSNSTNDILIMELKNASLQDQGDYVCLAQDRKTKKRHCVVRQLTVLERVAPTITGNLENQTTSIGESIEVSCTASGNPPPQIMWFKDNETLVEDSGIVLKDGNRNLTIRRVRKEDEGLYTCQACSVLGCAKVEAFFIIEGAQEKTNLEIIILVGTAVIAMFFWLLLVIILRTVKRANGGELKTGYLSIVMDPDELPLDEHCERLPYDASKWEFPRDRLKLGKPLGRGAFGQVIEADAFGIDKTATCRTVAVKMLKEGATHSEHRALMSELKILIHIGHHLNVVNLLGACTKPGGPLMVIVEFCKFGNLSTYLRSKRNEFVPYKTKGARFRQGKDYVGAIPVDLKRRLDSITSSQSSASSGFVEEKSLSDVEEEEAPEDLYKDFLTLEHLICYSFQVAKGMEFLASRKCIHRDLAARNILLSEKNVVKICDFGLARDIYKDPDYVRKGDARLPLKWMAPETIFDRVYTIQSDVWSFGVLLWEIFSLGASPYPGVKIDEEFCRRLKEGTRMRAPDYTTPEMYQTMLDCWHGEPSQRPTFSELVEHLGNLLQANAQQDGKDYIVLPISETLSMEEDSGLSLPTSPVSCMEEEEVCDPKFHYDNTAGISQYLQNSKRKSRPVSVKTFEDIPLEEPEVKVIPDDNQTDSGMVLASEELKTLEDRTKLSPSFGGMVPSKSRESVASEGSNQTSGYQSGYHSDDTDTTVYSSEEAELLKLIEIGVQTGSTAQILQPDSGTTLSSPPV
Method: as §1, §2, §3, §4

[6] = Ophthalmic formulations based on polyethylene glycol series vehicles: composition and state (Example 7); format: physicochemical; conditions: Table 12: 1mg/ml; Polyethylene glycol 400 5, Hydroxypropyl-β-cyclodextrin 10, Tris-HCl buffer (pH 8.3) 10mM, Hydroxypropyl methylcellulose 1, Poloxamer 188 1
Description: In the following ophthalmic formulation preparation examples, "solution" refers to a clear, transparent liquid without visible insoluble matter. "Near-clear solution" refers to a liquid that appears close to a solution upon visual observation but may contain a small amount of insoluble particles or have a slightly opaque color. "Suspension" refers to a liquid that is visibly turbid or opaque. "Gel" refers to a completely or partially gel-like solid.
Example 7: Ophthalmic Formulations Based on Polyethylene Glycol Series Vehicles
According to the formulation composition shown in the tables below, weigh the compound powder, add it to polyethylene glycol 400, and sonicate until dissolved or nearly dissolved (heat to 50°C if necessary). Add this to a Tris-HCl buffer solution containing hydroxypropyl-β-cyclodextrin, poloxamer 188, and gellan gum (or other viscosity modifier), vortex to mix, and prepare into an eye drop formulation.

[7] = Plasma and ocular tissue distribution after single ocular administration of formulations in Dutch Belted rabbits (Example 9); format: in vivo; conditions: for concentration at 0.5 h: male, rabbit, plasma, other: ocular administration (eye drops)
Method: Male Dutch Belted rabbits used in this experiment were purchased from Pizhou Dongfang Breeding Co., Ltd., with animal weights ranging from 1.5 to 2.5 kg. All procedures performed on experimental animals in this experiment complied with the relevant SOP requirements of Suzhou Sunstone New Drug Development Co., Ltd. and were approved by the Institutional Animal Care and Use Committee (IACUC) of Suzhou Sunstone New Drug Development Co., Ltd. Formulation Preparation: Weigh approximately 1 mg of the test substance into a glass vial. After necessary calculation/conversion, sequentially add the eye drop formulation vehicle (Tris-HCl buffer (0.05 mol/L): Tween 80: 0.5% CMC-Na = 49: 1:50). Vortex and sonicate after adding Tris-HCl buffer and Tween 80, then add 0.5% CMC-Na, vortex, and sonicate or cut if necessary, to prepare a 1 mg/mL dosing formulation. All prepared dosing formulations were freshly prepared on the day of administration, sampled, and the actual concentration of the dosing formulation was determined.
On the day of the experiment, animals were administered 1 mg/mL (0.05 mg/eye, 50 µL/eye). There were 2 animals per group. Animals were euthanized at 0.5, 4, or 8 hours after administration, respectively, by an appropriate method, and blood samples and ocular tissues (i.e., cornea, retina, choroid, and sclera) were collected. The collected 1 mL of whole blood was placed in an EDTA-K2 anticoagulant tube, inverted several times to mix thoroughly, and centrifuged (1500-1600 g) for 10 minutes within 30 minutes to separate plasma. The obtained plasma samples were stored at -80°C for bioanalysis. After collection, ocular tissues were washed with pre-cooled saline, dried, and stored at -80°C or under equivalent conditions for subsequent tissue homogenization and sample analysis. For ocular tissues requiring homogenization, the entire or a portion of the tissue was selected, accurately weighed, and homogenized at a 1:10 ratio with 20% methanol-water. The tissue homogenate was stored at -80°C for sample analysis. The concentrations of each analyte in rabbit ocular tissues and plasma obtained in this experiment were determined using an LC-MS/MS analytical method. The matrices were Dutch rabbit plasma (EDTA-K2 anticoagulated) and rabbit ocular tissue (1:10, 20% methanol-water). Left and right eyes were tested separately. BLOQ (Below the Limit of Quantification) is the lowest analyte concentration that can be quantified with acceptable precision and accuracy. Compounds were diluted 1:10 with homogenate before analysis, and if the concentration after dilution was less than 1 ng/mL, it was marked as BLOQ.
Example 9: Detection of Plasma and Ocular Tissue Distribution after Single Ocular Administration of Formulations in Dutch Belted Rabbits
The experimental procedure refers to Example 6. Animals were administered eye drops at 5 mg/mL (0.25 mg/eye, 50 µL/eye) or 1 mg/mL (0.05 mg/eye, 50 µL/eye), respectively. Table 22 Experimental Results
Except for compound I-32, the other components of Suspension A and Solution B are respectively: • Suspension A: Tris(hydroxymethyl)aminomethane-Hydrochloric Acid Buffer (0.05M): Tween 80: 0.5% (w/v) Sodium Carboxymethylcellulose aqueous solution = 49:1:50 (v/v/v); • Solution B: Polyethylene Glycol 400: 50mM Tris(hydroxymethyl)aminomethane-Hydrochloric Acid Buffer (containing 10% Hydroxypropyl-β-cyclodextrin, 1% Poloxamer 188, 0.3% Gellan Gum Gelrite, w/v) = 5:95 (v/v).

[8] = Solution B, 1 mg/mL (0.05 mg/eye, 50 µL/eye), formulation pH 8.3
[9] = Suspension A, 1 mg/mL (0.05 mg/eye, 50 µL/eye), formulation pH 8.4
[10] = Suspension A, 5 mg/mL (0.25 mg/eye, 50 µL/eye), formulation pH 8.4

T1 sequence (P17948 27-1338): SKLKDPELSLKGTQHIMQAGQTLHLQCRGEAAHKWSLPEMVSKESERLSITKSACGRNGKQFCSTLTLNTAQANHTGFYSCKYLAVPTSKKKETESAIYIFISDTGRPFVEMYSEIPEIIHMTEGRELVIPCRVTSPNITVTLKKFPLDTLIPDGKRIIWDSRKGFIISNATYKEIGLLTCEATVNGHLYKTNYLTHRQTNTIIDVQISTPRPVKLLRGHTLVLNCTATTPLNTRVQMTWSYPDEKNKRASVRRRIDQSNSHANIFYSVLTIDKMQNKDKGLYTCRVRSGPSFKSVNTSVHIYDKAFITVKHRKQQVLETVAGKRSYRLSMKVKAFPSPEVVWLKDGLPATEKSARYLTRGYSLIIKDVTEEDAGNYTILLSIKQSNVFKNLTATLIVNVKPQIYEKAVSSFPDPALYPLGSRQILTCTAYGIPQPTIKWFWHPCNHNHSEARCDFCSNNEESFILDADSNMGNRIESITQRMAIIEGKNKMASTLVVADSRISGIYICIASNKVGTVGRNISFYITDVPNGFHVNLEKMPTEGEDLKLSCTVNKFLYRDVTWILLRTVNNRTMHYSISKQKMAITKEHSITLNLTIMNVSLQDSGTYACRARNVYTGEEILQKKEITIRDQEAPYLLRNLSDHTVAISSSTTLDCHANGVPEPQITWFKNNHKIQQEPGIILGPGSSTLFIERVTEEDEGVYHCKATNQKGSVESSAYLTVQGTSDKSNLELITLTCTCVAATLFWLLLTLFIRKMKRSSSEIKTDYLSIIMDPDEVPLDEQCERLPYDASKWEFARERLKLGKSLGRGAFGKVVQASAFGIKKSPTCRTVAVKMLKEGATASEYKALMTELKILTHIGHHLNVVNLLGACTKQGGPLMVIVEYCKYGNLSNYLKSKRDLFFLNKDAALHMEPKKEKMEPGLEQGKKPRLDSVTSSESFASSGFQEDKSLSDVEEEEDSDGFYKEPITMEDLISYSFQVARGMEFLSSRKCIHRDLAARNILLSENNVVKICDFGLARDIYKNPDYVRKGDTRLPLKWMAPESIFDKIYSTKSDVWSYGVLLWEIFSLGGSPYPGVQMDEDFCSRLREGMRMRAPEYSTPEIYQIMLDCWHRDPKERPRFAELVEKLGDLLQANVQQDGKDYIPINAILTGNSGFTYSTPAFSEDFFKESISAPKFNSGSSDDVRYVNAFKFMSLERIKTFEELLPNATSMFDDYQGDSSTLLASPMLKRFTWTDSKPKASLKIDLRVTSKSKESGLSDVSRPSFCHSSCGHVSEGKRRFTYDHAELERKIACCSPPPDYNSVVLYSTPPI

IC50 [5]: ≤ 1 nM
IC50 [1]: ≤ 1 nM
IC50 [2]: ≤ 1 nM
solubility at 8 h [3]: 413 µg/mL (≈ 781 µM)
fraction unbound at 2 h, 2 µM [4]: > 0.05
Structure (SMILES): CNC(=O)c1ccccc1Sc1ccc2c(/C=C/c3ccc(OCCN4CCN(C)CC4)cn3)n[nH]c2c1 [Compound I-4]

IC50 [2]: ≤ 1 nM
fraction unbound at 2 h, 2 µM [4]: 0.01 to 0.05
Structure (SMILES): CNC(=O)c1ccccc1Sc1ccc2c(/C=C/c3ccn(CCN4CCCC4)n3)n[nH]c2c1 [Compound I-13]

IC50 [2]: > 100 nM
solubility at 8 h [3]: 859 µg/mL (≈ 1730 µM)
fraction unbound at 2 h, 2 µM [4]: 0.01 to 0.05
Structure (SMILES): CNC(=O)c1ccccc1Sc1ccc2c(C#Cc3cc(OCCN4CCCC4)ccn3)n[nH]c2c1 [Compound I-23]

IC50 [5]: > 100 nM
IC50 [1]: > 100 nM
IC50 [2]: > 100 nM
Structure (SMILES): CNC(=O)c1ccccc1Sc1ccc2c(Nc3ccc(OCCN4CCCC4)cn3)n[nH]c2c1 [Compound I-30, N-methyl-2-((3-((5-(2-(pyrrolidin-1-yl)ethoxy)pyridin-2-yl)amino)-1H-indazol-6-yl)thio)benzamide]

IC50 [1]: > 100 nM
solubility at 8 h [3]: 16.2 µg/mL (≈ 31.3 µM)
fraction unbound at 2 h, 2 µM [4]: > 0.05
Structure (SMILES): CNC(=O)c1c(F)cccc1Sc1ccc2c(/C=C/c3ccc(OCCN4CCCC4)cn3)n[nH]c2c1 [Compound I-36, 2-fluoro-N-methyl-6-({3-[(E)-2-{5-[2-(pyrrolidin-1-yl)ethoxy]pyridin-2-yl}ethenyl]-1H-indazol-6-yl}sulfanyl)benzamide]

IC50 [1]: ≤ 1 nM
fraction unbound at 2 h, 2 µM [4]: 0.01 to 0.05
Structure (SMILES): CN(C)Cc1ccc(/C=C/c2n[nH]c3cc(Sc4ccccc4C(=O)NC4CC4)ccc23)nc1 [Compound I-40, N-cyclopropyl-2-((3-((E)-2-(5-((dimethylamino)methyl)pyridin-2-yl)ethenyl)-1H-indazol-6-yl)thio)benzamide]

The remaining lines, values behind:

Structure (SMILES): CNC(=O)c1ccccc1Sc1ccc2c(/C=C/c3ccc(OCCN4CCOCC4)cn3)n[nH]c2c1 [Compound I-3, N-methyl-2-((3-((E)-2-(5-(2-(morpholin-4-yl)ethoxy)pyridin-2-yl)ethenyl)-1H-indazol-6-yl)thio)benzamide]
IC50 [1]: ≤ 1 nM
IC50 [2]: ≤ 1 nM
solubility at 8 h [3]: 0.5 µg/mL (≈ 0.97 µM)
fraction unbound at 2 h, 2 µM [4]: 0.01 to 0.05

Structure (SMILES): CNC(=O)c1ccccc1Sc1ccc2c(/C=C/c3ccc(OCCC4CCN(C)CC4)cn3)n[nH]c2c1 [Compound I-5]
IC50 [5]: ≤ 1 nM
IC50 [1]: ≤ 1 nM
IC50 [2]: ≤ 1 nM
solubility at 8 h [3]: 177 µg/mL (≈ 335 µM)
fraction unbound at 2 h, 2 µM [4]: 0.01 to 0.05

Structure (SMILES): CNC(=O)c1ccccc1Sc1ccc2c(/C=C/c3ccc(OCCN4CCCC4)cn3)n[nH]c2c1 [Compound I-6]
IC50 [1]: ≤ 1 nM
solubility at 8 h [3]: 226 µg/mL (≈ 452 µM)
fraction unbound at 2 h, 2 µM [4]: 0.01 to 0.05

Structure (SMILES): CNC(=O)c1ccccc1Sc1ccc2c(/C=C/c3ccc(O)cn3)n[nH]c2c1 [Compound I-10, 2-({3-[(E)-2-(5-hydroxypyridin-2-yl)ethenyl]-1H-indazol-6-yl}thio)-N-methylbenzamide]
IC50 [2]: ≤ 1 nM

Structure (SMILES): CNC(=O)c1ccccc1Sc1ccc2c(/C=C/c3cnn(CCCN4CCCC4)c3)n[nH]c2c1 [Compound I-32, N-methyl-2-((3-((E)-2-(1-(3-(pyrrolidin-1-yl)propyl)-1H-pyrazol-4-yl)ethenyl)-1H-indazol-6-yl)thio)benzamide]
solubility at 8 h [3]: 327 µg/mL (≈ 672 µM)
fraction unbound at 2 h, 2 µM [4]: 0.01 to 0.05
State Description: pH [6]: ~8
State Description: state [6]: solution
Choroid AUC [7, 8]: 381 ng·h/g
Conjunctiva AUC [7, 8]: 2142 ng·h/g
Cornea AUC [7, 8]: 590 ng·h/g
Plasma Concentration 0.5h [7, 8]: BLOQ
Retina AUC [7, 8]: 784 ng·h/g
Sclera AUC [7, 8]: 998 ng·h/g
Choroid AUC [7, 9]: 526 ng·h/g
Conjunctiva AUC [7, 9]: 6157 ng·h/g
Cornea AUC [7, 9]: 3380 ng·h/g
Iris AUC [7, 9]: 162 ng·h/g
Retina AUC [7, 9]: 330 ng·h/g
Sclera AUC [7, 9]: 2175 ng·h/g
Choroid AUC [7, 10]: 1594.5 ng·h/g
Conjunctiva AUC [7, 10]: 17380.5 ng·h/g
Cornea AUC [7, 10]: 5175 ng·h/g
Iris AUC [7, 10]: 549.5 ng·h/g
Retina AUC [7, 10]: 613 ng·h/g
Sclera AUC [7, 10]: 2439.5 ng·h/g
concentration at 0.5 h [7, 9]: 2.4 ng/mL
concentration at 0.5 h [7, 10]: 5.6 ng/mL

Structure (SMILES): CN1CCN(c2ccc(/C=C/c3n[nH]c4cc(Sc5ccccc5C(=O)NC5CC5)ccc34)nc2)CC1 [Compound I-38, N-cyclopropyl-2-({3-[(E)-2-[5-(4-methylpiperazin-1-yl)pyridin-2-yl]ethenyl]-1H-indazol-6-yl}thio)benzamide]
IC50 [5]: ≤ 1 nM
IC50 [1]: ≤ 1 nM
IC50 [2]: ≤ 1 nM
fraction unbound at 2 h, 2 µM [4]: 0.01 to 0.05

Structure (SMILES): CNC(=O)c1ccccc1Sc1ccc2c(/C=C/c3ccc(OC[C@@H]4CCN(C)C4)cn3)n[nH]c2c1 [Compound I-39]
IC50 [5]: ≤ 1 nM
IC50 [1]: ≤ 1 nM

Structure (SMILES): O=C(NC1CC1)c1ccccc1Sc1ccc2c(/C=C/c3cccc(CCCN4CCCC4)n3)n[nH]c2c1 [Compound I-121]
IC50 [5]: ≤ 1 nM
IC50 [2]: ≤ 1 nM
